Laboratory results: US20240109900A1, “AZABICYCLIC SHP2 INHIBITORS” (IRBM S.P.A., priority 2021, published 2024)
pIC50: −log10 of the molar value. Where two headings read alike, the source gives them in different places.

How the values were obtained:
[1] = target: SHP-2 enzyme (Met1-Leu525) (Homo sapiens (Human), UniProt Q06124); test: SHP2 inhibition enzymatic assay; assay type: biochemical; conditions: 0.5 nM SHP-2 activated by 500 nM IRS1 peptide, 75 μM DiFMUP substrate; read-out: SHP2wt-IC50
Chain of SHP-2 enzyme (Met1-Leu525) (Q06124 1-525): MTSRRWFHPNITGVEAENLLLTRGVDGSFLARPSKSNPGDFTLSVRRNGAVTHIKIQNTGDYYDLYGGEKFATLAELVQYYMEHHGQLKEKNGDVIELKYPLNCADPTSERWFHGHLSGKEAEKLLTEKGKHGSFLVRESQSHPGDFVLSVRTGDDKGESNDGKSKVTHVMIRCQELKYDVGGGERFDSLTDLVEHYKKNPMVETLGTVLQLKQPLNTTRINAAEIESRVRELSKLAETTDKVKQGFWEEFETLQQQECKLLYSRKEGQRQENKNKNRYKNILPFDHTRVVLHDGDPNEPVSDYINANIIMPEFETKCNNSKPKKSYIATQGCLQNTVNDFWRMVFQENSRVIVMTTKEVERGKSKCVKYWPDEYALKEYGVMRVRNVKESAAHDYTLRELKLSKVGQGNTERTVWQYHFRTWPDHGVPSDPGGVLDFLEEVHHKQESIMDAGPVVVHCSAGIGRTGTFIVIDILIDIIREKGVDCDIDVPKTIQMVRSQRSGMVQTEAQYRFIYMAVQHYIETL
How it was run: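 SHP-2 (Met1-Leu525), 0.5 nM, activated with 500 nM IRS1 bis-phosphopeptide, preincubated 30 min with compounds in HEPES pH 7.2 buffer with 5 mM DTT. 75 μM DiFMUP added for 30 min at room temperature, stopped with bpV; fluorescence read. IC50 from four-parameter logistic fit of % inhibition.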

[2] = test system: ERK phosphorylation in KYSE-520 cells; test: Phospho-ERK cellular assay; assay type: cell-based; conditions: KYSE-520 cells, 2 h at 37° C., phospho-ERK1/2 (Thr202/Tyr204) TR-FRET, read-out: PERK IC50
How it was run: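 TR-FRET read-out of ERK1/2 Thr202/Tyr204 phosphorylation was taken after overnight antibody incubation at room temperature. Before that, KYSE-520 cells were treated 2 h at 37 °C with compound dilutions and lysed 30 min. Percent inhibition relative to vehicle and cell-free wells was fitted four-parametrically to give IC50.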

CC(C)n1ncc2c(Cl)c(-c3n[nH]c4nc(N5CC[C@@H]6[C@H](C5)[C@@]6(CN)c5ccccc5F)cnc34)ccc21 [Example 325, ((1S,6R,7R)-3-(3-(4-chloro-1-isopropyl-1H-indazol-5-yl)-1H-pyrazolo[3,4-b]pyrazin-6-yl)-7-(2-fluorophenyl)-3-azabicyclo[4.1.0]heptan-7-yl)methanamine]
pIC50 [1]: > 6.30 | pIC50 ([2]; Homo sapiens, KYSE-520, 2 h): > 6.00

Cn1cc2c(Cl)c(-c3n[nH]c4nc(N5C[C@@H]6[C@H](C5)[C@@]6(CN)c5nc(C(F)(F)F)cs5)n(C)c(=O)c34)ccc2n1 [Example 471, 6-((1R,5S,6r)-6-(aminomethyl)-6-(4-(trifluoromethyl)thiazol-2-yl)-3-azabicyclo[3.1.0]hexan-3-yl)-3-(4-chloro-2-methyl-2H-indazol-5-yl)-5-methyl-1,5-dihydro-4H-pyrazolo[3,4-d]pyrimidin-4-one]
pIC50 [1]: > 6.30 | pIC50 ([2]; Homo sapiens, KYSE-520, 2 h): > 6.00

NC[C@]1(c2ccccc2Cl)[C@@H]2CCN(c3cnc4c(-c5ccnc(N)c5Cl)n[nH]c4n3)C[C@@H]21 [Example 181, 4-(6-((1S,6R,7R)-7-(aminomethyl)-7-(2-chlorophenyl)-3-azabicyclo[4.1.0]heptan-3-yl)-1H-pyrazolo[3,4-b]pyrazin-3-yl)-3-chloropyridin-2-amine]
pIC50 [1]: > 6.30 | pIC50 ([2]; Homo sapiens, KYSE-520, 2 h): > 6.00

Cn1cc2c(Cl)c(-c3n[nH]c4nc(N5CC[C@@H]6[C@H](C5)[C@@]6(CN)c5ccccc5F)cnc34)ccc2n1 [Example 203, ((1S,6R,7R)-3-(3-(4-chloro-2-methyl-2H-indazol-5-yl)-1H-pyrazolo[3,4-b]pyrazin-6-yl)-7-(2-fluorophenyl)-3-azabicyclo[4.1.0]heptan-7-yl)methanamine]
pIC50 [1]: > 6.30 | pIC50 ([2]; Homo sapiens, KYSE-520, 2 h): > 6.00

Cc1csc([C@@]2(CN)[C@@H]3CN(c4cnc(Sc5ccnc(N)c5Cl)cn4)C[C@@H]32)n1 [Example 498, 4-((5-((1R,5S,6r)-6-(aminomethyl)-6-(4-methylthiazol-2-yl)-3-azabicyclo[3.1.0]hexan-3-yl)pyrazin-2-yl)thio)-3-chloropyridin-2-amine]
pIC50 [1]: > 6.30 | pIC50 ([2]; Homo sapiens, KYSE-520, 2 h): > 6.00

Cc1ccc(-c2n[nH]c3nc(N4CC[C@@H]5[C@H](C4)[C@@]5(CN)c4ccccc4F)cnc23)c2ccnn12 [Example 161, ((1S,6R,7R)-7-(2-fluorophenyl)-3-(3-(7-methylpyrazolo[1,5-a]pyridin-4-yl)-1H-pyrazolo[3,4-b]pyrazin-6-yl)-3-azabicyclo[4.1.0]heptan-7-yl)methanamine]
pIC50 [1]: > 6.30 | pIC50 ([2]; Homo sapiens, KYSE-520, 2 h): > 6.00

NC[C@]1(c2ccccc2F)[C@@H]2CCN(c3cnc4c(-c5ccnc(N)n5)n[nH]c4n3)C[C@@H]21 [Example 163, 4-(6-((1S,6R,7R)-7-(aminomethyl)-7-(2-fluorophenyl)-3-azabicyclo[4.1.0]heptan-3-yl)-1H-pyrazolo[3,4-b]pyrazin-3-yl)pyrimidin-2-amine]
pIC50 [1]: > 6.30 | pIC50 ([2]; Homo sapiens, KYSE-520, 2 h): > 6.00

NC[C@]1(c2ccccc2F)[C@@H]2CCN(c3ccc4nc(Sc5ccnc(N)c5Cl)cnc4n3)C[C@@H]21 [Example 385, 4-((6-((1S,6R,7R)-7-(aminomethyl)-7-(2-fluorophenyl)-3-azabicyclo[4.1.0]heptan-3-yl)pyrido[2,3-b]pyrazin-2-yl)thio)-3-chloropyridin-2-amine]
pIC50 [1]: > 6.30 | pIC50 ([2]; Homo sapiens): > 6.00

Cc1cc([C@@]2(CN)[C@@H]3CCN(c4cnc5c(-c6ccnc7c(F)cccc67)n[nH]c5n4)C[C@@H]32)no1 [Example 114, ((1S,6R,7S)-3-(3-(8-fluoroquinolin-4-yl)-1H-pyrazolo[3,4-b]pyrazin-6-yl)-7-(5-methylisoxazol-3-yl)-3-azabicyclo[4.1.0]heptan-7-yl)methanamine]
pIC50 [1]: > 6.30 | pIC50 ([2]; Homo sapiens, KYSE-520, 2 h): > 6.00

Cn1ccc2c(Cl)c(-c3n[nH]c4nc(N5CC[C@@H]6[C@H](C5)[C@@]6(CN)c5ccccc5F)cnc34)ccc2c1=O [Example 336, 6-(6-((1S,6R,7R)-7-(aminomethyl)-7-(2-fluorophenyl)-3-azabicyclo[4.1.0]heptan-3-yl)-1H-pyrazolo[3,4-b]pyrazin-3-yl)-5-chloro-2-methylisoquinolin-1(2H)-one]
pIC50 [1]: > 6.30 | pIC50 ([2]; Homo sapiens, KYSE-520, 2 h): > 6.00

NC[C@]1(c2ccccc2F)[C@@H]2CCN(c3cnc4c(-c5cc6cccnc6cc5F)n[nH]c4n3)C[C@@H]21 [Example 175, ((1S,6R,7R)-7-(2-fluorophenyl)-3-(3-(7-fluoroquinolin-6-yl)-1H-pyrazolo[3,4-b]pyrazin-6-yl)-3-azabicyclo[4.1.0]heptan-7-yl)methanamine]
pIC50 [1]: > 6.30 | pIC50 ([2]; Homo sapiens, KYSE-520, 2 h): > 6.00

Cc1nc(N2CC[C@@H]3[C@H](C2)[C@@]3(CN)c2cc(F)ccc2F)cc(=O)n1-c1cccc(Cl)c1Cl [Example 411, 6-((1S,6R,7R)-7-(aminomethyl)-7-(2,5-difluorophenyl)-3-azabicyclo[4.1.0]heptan-3-yl)-3-(2,3-dichlorophenyl)-2-methylpyrimidin-4(3H)-one]
pIC50 [1]: < 5.52 | pIC50 [2]: < 5.30

NC[C@]1(c2ccccc2F)[C@@H]2CCN(c3cnc(Sc4ccc5nccnc5c4Cl)c(N)n3)C[C@@H]21 [Example 523, 6-((1S,6R,7R)-7-(aminomethyl)-7-(2-fluorophenyl)-3-azabicyclo[4.1.0]heptan-3-yl)-3-((5-chloroquinoxalin-6-yl)thio)pyrazin-2-amine]
pIC50 [1]: > 6.30 | pIC50 ([2]; Homo sapiens, KYSE-520, 2 h): > 6.00

NC[C@@]1(c2ccccc2F)C2CCN(c3ccc4nc(Sc5ccnc(N)c5Cl)ccc4n3)CC21 (stereo in doubt) [Example 387, 4-((6-((1R,6S,7S)-7-(aminomethyl)-7-(2-fluorophenyl)-3-azabicyclo[4.1.0]heptan-3-yl)-1,5-naphthyridin-2-yl)thio)-3-chloropyridin-2-amine]
pIC50 [1]: > 6.30 | pIC50 ([2]; Homo sapiens, KYSE-520, 2 h): > 6.00

Cc1csc([C@@]2(CN)[C@@H]3CN(c4nc5[nH]cc(-c6ccc7nn(C)cc7c6Cl)c5c(=O)n4C)C[C@@H]32)n1 [Example 473, 2-((1R,5S,6r)-6-(aminomethyl)-6-(4-methylthiazol-2-yl)-3-azabicyclo[3.1.0]hexan-3-yl)-5-(4-chloro-2-methyl-2H-indazol-5-yl)-3-methyl-3,7-dihydro-4H-pyrrolo[2,3-d]pyrimidin-4-one]
pIC50 [1]: > 6.30 | pIC50 ([2]; Homo sapiens, KYSE-520, 2 h): > 6.00

NC[C@]1(c2ccccc2F)[C@@H]2CCN(c3cnc4c(N5CC6(CCC6)c6ncccc65)n[nH]c4n3)C[C@@H]21 [Example 270, ((1S,6R,7R)-7-(2-fluorophenyl)-3-(3-(spiro[cyclobutane-1,3′-pyrrolo[3,2-b]pyridin]-1′(2′H)-yl)-1H-pyrazolo[3,4-b]pyrazin-6-yl)-3-azabicyclo[4.1.0]heptan-7-yl)methanamine]
pIC50 [1]: > 6.30 | pIC50 ([2]; Homo sapiens, KYSE-520, 2 h): > 6.00

Cn1cc(-c2n[nH]c3nc(N4CC[C@@H]5[C@H](C4)[C@@]5(CN)c4ccccc4F)cnc23)cn1 [Example 347, ((1S,6R,7R)-7-(2-fluorophenyl)-3-(3-(1-methyl-1H-pyrazol-4-yl)-1H-pyrazolo[3,4-b]pyrazin-6-yl)-3-azabicyclo[4.1.0]heptan-7-yl)methanamine]
pIC50 [1]: > 6.30 | pIC50 ([2]; Homo sapiens, KYSE-520, 2 h): < 5.30

Cn1c(=O)ccc2c(-c3n[nH]c4nc(N5CC[C@@H]6[C@H](C5)[C@@]6(CN)c5ccccc5F)cnc34)cccc21 [Example 272, 5-(6-((1S,6R,7R)-7-(aminomethyl)-7-(2-fluorophenyl)-3-azabicyclo[4.1.0]heptan-3-yl)-1H-pyrazolo[3,4-b]pyrazin-3-yl)-1-methylquinolin-2(1H)-one]
pIC50 [1]: > 6.30 | pIC50 ([2]; Homo sapiens, KYSE-520, 2 h): > 6.00

Cn1cc2c(Cl)c(-c3n[nH]c4nc(N5C[C@@H]6[C@H](C5)[C@@]6(CN)c5ccccc5)cnc34)ccc2n1 [Example 453, ((1R,5S,6s)-3-(3-(4-chloro-2-methyl-2H-indazol-5-yl)-1H-pyrazolo[3,4-b]pyrazin-6-yl)-6-phenyl-3-azabicyclo[3.1.0]hexan-6-yl)methanamine]
pIC50 [1]: > 6.30 | pIC50 ([2]; Homo sapiens, KYSE-520, 2 h): > 6.00

Cc1conc1C1(CN)C2CCN(c3cnc4c(-c5cccc(Cl)c5Cl)n[nH]c4n3)CC21 (centres unmarked) [Example 14, (3-(3-(2,3-dichlorophenyl)-1H-pyrazolo[3,4-b]pyrazin-6-yl)-7-(4-methylisoxazol-3-yl)-3-azabicyclo[4.1.0]heptan-7-yl)methanamine]
pIC50 [1]: > 6.30 | pIC50 ([2]; Homo sapiens, KYSE-520, 2 h): > 6.00

NC[C@]1(c2ccccc2)[C@@H]2CN(c3cnc4c(-c5cccc(Cl)c5Cl)n[nH]c4n3)C[C@@H]21 [Example 452, ((1R,5S,6s)-3-(3-(2,3-dichlorophenyl)-1H-pyrazolo[3,4-b]pyrazin-6-yl)-6-phenyl-3-azabicyclo[3.1.0]hexan-6-yl)methanamine]
pIC50 [1]: > 6.30 | pIC50 ([2]; Homo sapiens, KYSE-520, 2 h): > 6.00

NC[C@]1(c2ccccc2F)[C@@H]2CCN(c3cnc4c(-c5cccc6c(=O)[nH]ccc56)n[nH]c4n3)C[C@@H]21 [Example 209, 5-(6-((1S,6R,7R)-7-(aminomethyl)-7-(2-fluorophenyl)-3-azabicyclo[4.1.0]heptan-3-yl)-1H-pyrazolo[3,4-b]pyrazin-3-yl)isoquinolin-1(2H)-one]
pIC50 [1]: > 6.30 | pIC50 ([2]; Homo sapiens, KYSE-520, 2 h): > 6.00
